Results published in PMC12590356, “Novel pyrrolo[2,1-a]isoquinoline aryl ketones attenuate carbon nanotube-induced acute lung injury through NF-κB pathway inhibition” (RSC Advances, 2025).
Entries after “also recorded” stand apart in the source; their conditions may differ.

Key:
[1] = test system: LPS-induced NO production in RAW 264.7 cells; experiment: LPS-induced NO production (Griess reagent); format: cell-based, murine; details: Mus musculus, RAW264.7, LPS 500 ng/mL 24 h, Griess reagent, means ± SD (n = 3), read-out: IC50, inhibition of LPS-induced NO production
Protocol: Despite extensive research efforts focused on the treatment ALI, no specific drugs have been identified thus far. In the quest to discover innovative anti-inflammatory drugs for ALI treatment, we assessed the anti-inflammatory potential of pyrrolo[2,1-a]isoquinoline aryl ketones were evaluated through their capacity to suppress LPS-induced NO release in RAW264.7 cells.[21,28] Griess reagent was used to quantify the levels of LPS-induced NO release in RAW264.7 cells following treatment with the synthesized compounds.
The quantification of NO production in activated RAW264.7 cells was achieved by measuring the concentration of nitrite, which serves as a stable oxidative metabolite of NO, employing a previously established protocol.[37] RAW264.7 cells were cultured overnight in 48-well plates at a cellular density of 5 × 10^4 cells per milliliter. […] Briefly, Griess reagents I and II were mixed with 50 μL of the culture medium supernatant, and the resultant mixture was analyzed spectrophotometrically at a wavelength of 540 nm using an automated microplate reader. The NO inhibition rate was calculated using the following formula: NO inhibition rate = [(OD540 − compound OD540)/(OD540 − blank OD540)] × 100%.

[2] = test system: TNF-α; experiment: TNF-α secretion in LPS-stimulated RAW264.7 macrophages (ELISA); format: cell-based, murine; details: Mus musculus, LPS (0.5 μg/mL)-stimulated RAW264.7 cells, 24 h, read-out: IC50 for TNF-α inhibition
Protocol: To elucidate the anti-inflammatory mechanisms underlying 3g and 3k, we conducted a comprehensive investigation into their impact on the secretion of pro-inflammatory cytokines, employing an LPS-stimulated RAW264.7 macrophage model. TNF-α and IL-6, which serve as pivotal mediators in the pathogenesis of ALI, are primarily secreted by activated alveolar macrophages, neutrophils, and lung structural cells. […] In this study, RAW264.7 cells were treated with LPS (0.5 μg mL^−1) and varying concentrations of 3g or 3k for 24 hours. […] This mechanistic understanding provides robust support for the therapeutic potential of the novel diaryl ketone scaffold in the ALI management.
Fig. 2 Compounds 3g and 3k inhibited the cytokine production of RAW264.7 cells stimulated by LPS. […] The levels of IL-6 (A) and TNF-α (B) in the culture medium were measured by ELISA kits. Data are expressed as mean ± SEM for each group of independent experiments (n = 3); *p < 0.05; **p < 0.01; ***p < 0.001 vs. model group.
Based on the initial screening results, compounds 3g and 3k were selected for further experimentation. […] The levels of TNF-α and IL-6 released into the macrophage supernatant were quantified using ELISA kits sourced from Elabscience (Wuhan, China), according to the manufacturer's guidelines.

[3] = test system: SWCNT-induced ALI mice; experiment: Complete blood count in SWCNT-induced ALI mice; format: in vivo, C57BL/6 mice; details: 50 mg/kg once a day for 3 d, p < 0.01 vs. model
Text: To explore the immunomodulatory effects of 3g and 3k, we conducted an analysis of systemic inflammatory responses in mice with SWCNT-induced ALI by employing hematological profiling. During inflammatory responses, immune activation induces cytokine production and modulates leukocyte trafficking dynamics. […] Mechanistically, the proliferation of LY is initiated in response to inflammatory stimuli as a means to combat infection. […] Consequently, this leads to a diminished requirement for the continuous mobilization of LY. These findings highlight the anti-inflammatory and immunomodulatory properties of pyrrolo[2,1-a]isoquinoline derivatives in mitigating SWCNT-induced pulmonary injury.
(§1) Based on the results of the previous in vitro experiments, 3g and 3k were chosen for animal experiments. 3g was dissolved in 5% DMSO and 3k was dissolved in 0.5% sodium carboxymethyl cellulose (CMC-Na). Male C57BL/6 mice were randomly divided into four groups of ten animals each: CON, single-walled carbon nanotubes (SWCNT) model, 3k (50 mg kg^−1) + SWCNT, 3g (50 mg kg^−1) + SWCNT. […]
Blood samples were extracted from the eyeballs of each experimental mouse cohort to obtain comprehensive whole blood specimens. Complete blood count (CBC) and differential leukocyte count (DLC) were determined using an automatic blood cell analyzer (Mindray CAL 6000, China).

[4] = test system: NF-κB p65; experiment: Immunofluorescence of NF-κB p65 in lung tissues; format: in vivo, C57BL/6 mice; details: SWCNT-induced ALI mice, 50 mg/kg once a day for 3 d
Text: To elucidate the mechanism underlying the modulation of NF-κB pathway, we employed immunofluorescence techniques to scrutinize the spatiotemporal dynamics of NF-κB p65 within lung tissues. The canonical NF-κB signaling cascade involves IκB kinase (IKK)-mediated phosphorylation of IκBα, triggering its ubiquitination and proteasomal degradation. This process releases the NF-κB p65/p50 heterodimer, enabling its nuclear translocation and subsequent initiation of pro-inflammatory mediator transcription.[35,36] […] This finding implies a pharmacological activity that is contingent upon the structural characteristics of the compounds.
as §1, with “SWCNT. The SWCNT model group was administered a one-time tracheal drip of 50 μL of SWCNT suspension containing 40 μg of SWCNT (approximately 1.86 mg per kg body weight) per mouse to model ALI.” for “SWCNT.”
Mouse lung tissues were isolated and stored in a 4% paraformaldehyde solution. […] Representative images of each sample were acquired (magnification ×200) and analyzed using the ImageJ software. […]

Structure (SMILES) | IC50 [1] [µM] | IC50 [2] [µM] | Circulating lymphocyte (LY) count [3] | p65 fluorescence intensity and nuclear translocation in lung tissue ([4]; 50 mg/kg) | p65 fluorescence intensity and nuclear translocation in lung tissue [4]
O=C(c1ccc(F)cc1)c1ccc2c3ccccc3ccn12 [3g] | 6.91 ± 0.12 | 7.85 | significantly reduced circulating LY populations | reduced fluorescence intensity and suppressed nuclear translocation of p65; also recorded: significantly enhanced efficacy in inhibiting he nuclear translocation of p65 | 
Cc1ccccc1C(=O)c1ccc2c3ccccc3ccn12 [3k] | 10.1 ± 2.09 | 8.3 | significantly reduced circulating LY populations |  | reduced fluorescence intensity and suppressed nuclear translocation of p65
